Values quoted from earlier work in US20040072765A1, “Cardiovascular and bone treatment using isoflavones” (Novogen Research Pty Ltd., priority 1999, published 2004).

What was measured:
[1] = low doses, rats
[2] = men and women

SMILES	cortical and trabecular bone density [1]	increase in HDL levels [2]
O=c1c(-c2ccc(O)cc2)coc2cc(O)cc(O)c12 [Genistein, genistein]	increased	–
CCOC(=O)C(C)(C)Oc1ccc(Cl)cc1 [clofibrinate]	–	about 10%
